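Tested at 5 concentrations; 48 h exposure; 96-well plates; endpoints linearly interpolated, else capped at highest concentration. GI50: concentration for 50% inhibition of growth. TGI: concentration producing complete growth inhibition.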
Columns and labels:
Assay in all cases: NCI-60 cell line screen, 48 h
[1] = system: 786-0 renal
[2] = system: A498 renal
[3] = system: A549 NSCLC
[4] = system: ACHN renal
[5] = system: BT-549 breast
[6] = system: CAKI-1 renal
[7] = system: CCRF-CEM leukemia
[8] = system: COLO 205 colon
[9] = system: DU-145 prostate
[10] = system: EKVX NSCLC
[11] = system: HCC-2998 colon
[12] = system: HCT-116 colon
[13] = system: HCT-15 colon
[14] = system: HL-60(TB) leukemia
[15] = system: HOP-62 NSCLC
[16] = system: HS 578T breast
[17] = system: HT29 colon
[18] = system: IGROV1 ovarian
[19] = system: K-562 leukemia
[20] = system: KM12 colon
[21] = system: LOX IMVI melanoma
[22] = system: M14 melanoma
[23] = system: MALME-3M melanoma
[24] = system: MCF7 breast
[25] = system: MDA-MB-435
[26] = system: MOLT-4 leukemia
[27] = system: NCI-H226 lung
[28] = system: NCI-H460 lung
[29] = system: NCI-H522 lung
[30] = system: NCI/ADR-RES ovarian
[31] = system: OVCAR-3 ovarian
[32] = system: OVCAR-4 ovarian
[33] = system: OVCAR-5 ovarian
[34] = system: OVCAR-8 ovarian
[35] = system: PC-3 prostate
[36] = system: RPMI-8226 leukemia
[37] = system: RXF 393 renal
[38] = system: SF-268 CNS
[39] = system: SF-295 CNS
[40] = system: SF-539 CNS
[41] = system: SK-MEL-2 melanoma
[42] = system: SK-MEL-28 melanoma
[43] = system: SK-MEL-5 melanoma
[44] = system: SK-OV-3 ovarian
[45] = system: SN12C renal
[46] = system: SNB-19 CNS
[47] = system: SNB-75 CNS
[48] = system: SR leukemia
[49] = system: SW-620 colon
[50] = system: T-47D breast
[51] = system: TK-10 renal
[52] = system: U251 CNS
[53] = system: UACC-257 melanoma
[54] = system: UACC-62 melanoma
[55] = system: UO-31 renal

## CN1CCN(c2ccc(Nc3ncc4cc(C#N)c(=O)n(C5CCCC5)c4n3)cc2)CC1
[1]
  GI50: 693 nM
  TGI: 4.11 µM
[2]
  GI50: 199 nM
  TGI: 2240 nM
[3]
  GI50: 2050 nM
  TGI: > 100 µM
[4]
  GI50: 309 nM
  TGI: 13.5 µM
[5]
  GI50: 2650 nM
  TGI: 7.58 µM
[6]
  GI50: 346 nM
  TGI: 17.3 µM
[7]
  GI50: 597 nM
  TGI: > 20.9 µM
[8]
  GI50: 797 nM
  TGI: > 100 µM
[9]
  GI50: 2130 nM
  TGI: > 100 µM
[10]
  GI50: 2930 nM
  TGI: > 100 µM
[11]
  GI50: 2800 nM
  TGI: > 100 µM
[12]
  GI50: 587 nM
  TGI: > 100 µM
[13]
  GI50: 940 nM
  TGI: > 100 µM
[14]
  GI50: 595 nM
  TGI: 4.2 µM
[15]
  GI50: 2190 nM
  TGI: > 25.5 µM
[16]
  GI50: 807 nM
  TGI: 6.07 µM
[17]
  GI50: 600 nM
  TGI: > 100 µM
[18]
  GI50: 605 nM
  TGI: > 23.3 µM
[19]
  GI50: 1250 nM
  TGI: > 100 µM
[20]
  GI50: 1520 nM
  TGI: > 100 µM
[21]
  GI50: 580 nM
  TGI: 3.51 µM
[22]
  GI50: 1390 nM
  TGI: > 100 µM
[23]
  GI50: 1900 nM
  TGI: > 100 µM
[24]
  GI50: 346 nM
  TGI: > 100 µM
[25]
  GI50: 3.1 µM
  TGI: > 100 µM
[26]
  GI50: 300 nM
  TGI: 3.17 µM
[27]
  GI50: 840 nM
  TGI: 10.6 µM
[28]
  GI50: 640 nM
  TGI: > 49.3 µM
[29]
  GI50: 4.29 µM
  TGI: > 100 µM
[30]
  GI50: 2940 nM
  TGI: > 33 µM
[31]
  GI50: 2940 nM
  TGI: > 24.2 µM
[32]
  GI50: 3.08 µM
  TGI: > 100 µM
[33]
  GI50: 942 nM
  TGI: > 100 µM
[34]
  GI50: 3.18 µM
  TGI: > 47.9 µM
[35]
  GI50: 611 nM
  TGI: > 23.2 µM
[36]
  GI50: 870 nM
  TGI: 5.33 µM
[37]
  GI50: 477 nM
  TGI: 2230 nM
[38]
  GI50: 1480 nM
  TGI: 4.95 µM
[39]
  GI50: 1190 nM
  TGI: > 42.6 µM
[40]
  GI50: 1280 nM
  TGI: 3.27 µM
[41]
  GI50: 4.87 µM
  TGI: > 62.8 µM
[42]
  GI50: 3.54 µM
  TGI: > 100 µM
[43]
  GI50: 3.17 µM
  TGI: > 100 µM
[44]
  GI50: 4.41 µM
  TGI: > 100 µM
[45]
  GI50: 917 nM
  TGI: 15.5 µM
[46]
  GI50: 1770 nM
  TGI: 18.7 µM
[47]
  GI50: 336 nM
  TGI: 3.8 µM
[48]
  GI50: 661 nM
  TGI: 3.86 µM
[49]
  GI50: 451 nM
  TGI: > 100 µM
[50]
  GI50: 2320 nM
  TGI: > 100 µM
[51]
  GI50: 820 nM
  TGI: > 24.2 µM
[52]
  GI50: 1740 nM
  TGI: > 100 µM
[53]
  GI50: 4.02 µM
  TGI: > 100 µM
[54]
  GI50: 4 µM
  TGI: > 100 µM
[55]
  GI50: 218 nM
  TGI: 7.03 µM
